The text below walks through data of patent US20240287037A1, “CYCLOALKYL COMPOUNDS AND PHARMACEUTICAL COMPOSITIONS THAT MODULATE IKZF2” (Plexium, Inc., priority 2021, published 2024).

Molecules are shown by their SMILES.

Sequence of GSPT1 (P15170 whole entry): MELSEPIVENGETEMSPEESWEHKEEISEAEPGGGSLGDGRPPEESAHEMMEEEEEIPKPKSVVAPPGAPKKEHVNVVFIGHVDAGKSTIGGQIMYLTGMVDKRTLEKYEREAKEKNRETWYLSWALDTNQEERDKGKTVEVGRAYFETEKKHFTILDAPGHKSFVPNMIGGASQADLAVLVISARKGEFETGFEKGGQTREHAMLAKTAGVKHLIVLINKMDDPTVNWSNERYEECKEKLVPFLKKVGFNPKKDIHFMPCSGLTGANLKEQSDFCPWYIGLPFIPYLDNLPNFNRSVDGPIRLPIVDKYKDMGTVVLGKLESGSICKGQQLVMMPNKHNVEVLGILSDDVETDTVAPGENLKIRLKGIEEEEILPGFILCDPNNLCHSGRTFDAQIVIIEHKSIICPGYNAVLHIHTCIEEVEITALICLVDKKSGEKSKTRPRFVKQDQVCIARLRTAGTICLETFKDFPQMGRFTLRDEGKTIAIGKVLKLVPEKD
Sequence of GSPT1 (Q96SW2 whole entry): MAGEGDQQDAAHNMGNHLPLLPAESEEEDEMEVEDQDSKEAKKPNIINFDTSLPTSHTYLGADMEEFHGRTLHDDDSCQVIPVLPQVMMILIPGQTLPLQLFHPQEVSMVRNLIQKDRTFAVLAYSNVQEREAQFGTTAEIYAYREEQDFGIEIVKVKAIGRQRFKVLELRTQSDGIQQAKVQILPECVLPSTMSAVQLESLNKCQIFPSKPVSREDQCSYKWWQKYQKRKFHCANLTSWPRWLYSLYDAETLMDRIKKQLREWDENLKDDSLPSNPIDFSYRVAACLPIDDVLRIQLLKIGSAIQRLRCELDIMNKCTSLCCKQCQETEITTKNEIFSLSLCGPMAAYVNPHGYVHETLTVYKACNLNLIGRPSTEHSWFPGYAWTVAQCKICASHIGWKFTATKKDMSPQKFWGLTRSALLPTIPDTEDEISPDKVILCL
Sequence of GSPT1 (Q16531 whole entry partner): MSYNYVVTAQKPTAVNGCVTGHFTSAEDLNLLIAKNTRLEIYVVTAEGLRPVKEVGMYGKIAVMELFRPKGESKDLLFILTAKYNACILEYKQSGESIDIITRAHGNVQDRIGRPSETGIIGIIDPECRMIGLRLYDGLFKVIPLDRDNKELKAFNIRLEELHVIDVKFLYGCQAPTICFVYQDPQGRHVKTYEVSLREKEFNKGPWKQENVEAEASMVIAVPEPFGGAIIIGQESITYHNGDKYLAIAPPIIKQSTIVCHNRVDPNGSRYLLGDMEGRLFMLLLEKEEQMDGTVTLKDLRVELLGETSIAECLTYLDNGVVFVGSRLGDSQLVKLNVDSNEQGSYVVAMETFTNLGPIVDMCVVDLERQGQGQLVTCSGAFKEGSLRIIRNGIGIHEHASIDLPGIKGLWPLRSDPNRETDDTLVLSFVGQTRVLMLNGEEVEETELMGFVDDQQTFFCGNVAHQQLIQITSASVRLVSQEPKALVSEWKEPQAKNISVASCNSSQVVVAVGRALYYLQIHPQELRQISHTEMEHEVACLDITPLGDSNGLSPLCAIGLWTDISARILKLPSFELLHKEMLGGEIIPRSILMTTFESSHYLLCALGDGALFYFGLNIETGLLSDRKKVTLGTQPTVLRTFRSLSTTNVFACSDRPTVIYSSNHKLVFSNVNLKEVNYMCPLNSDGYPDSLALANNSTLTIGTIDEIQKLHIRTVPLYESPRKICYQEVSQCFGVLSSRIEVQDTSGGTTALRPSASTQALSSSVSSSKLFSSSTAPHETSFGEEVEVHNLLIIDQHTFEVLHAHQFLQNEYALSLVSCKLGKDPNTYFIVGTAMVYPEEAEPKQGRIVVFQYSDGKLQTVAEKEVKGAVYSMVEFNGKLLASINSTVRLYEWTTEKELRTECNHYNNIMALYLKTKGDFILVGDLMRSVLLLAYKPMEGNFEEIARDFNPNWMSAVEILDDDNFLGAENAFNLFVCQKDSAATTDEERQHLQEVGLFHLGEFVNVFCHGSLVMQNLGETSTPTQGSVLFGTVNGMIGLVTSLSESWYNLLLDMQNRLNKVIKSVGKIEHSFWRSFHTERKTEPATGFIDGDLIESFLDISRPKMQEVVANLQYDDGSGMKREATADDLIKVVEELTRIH

The target of this test is GSPT1 (Homo sapiens (Human), UniProt P15170+Q96SW2). Description: GSPT1 reporter degradation assay (HEK293 hGSPT1 HiBiT-tagged cells). It is filed as cell-based. The following applies: 24 hour incubation. On the procedure:
HEK293_hGSPT1_HiBiT-tagged cells were generated using CRISPR-Cas12a technology. Briefly, ˜400,000 HEK293 cells were transiently co-transfected with precomplexed ribonuclear proteins (RNPs) consisting of […] of crRNA (IDT), […] of Cas12a protein (IDT), 3 μg of ssODN donor (IDT; AltRTM modifications), 78 pmol of electroporation enhancer (IDT), and 200 ng of pMaxGFP (Lonza). The transfection was performed via nucleofection (Lonza, 4D-Nucleofector X-unit) using solution P3 and program CM-130 in a (20 μL) cuvette. Five days post-nucleofection, cells were single-cell-sorted for GFP+ (transfected) cells by FACs in 96-well plates and clonally selected. Clones were screened and verified for the desired modification via targeted deep sequencing using gene-specific primers with partial Illumina adapter overhangs as previously described. In brief, clonal cell pellets were harvested, lysed, and used to generate gene-specific amplicons with partial Illumina adapters in PCR #1. Amplicons were indexed in PCR #2 and pooled with other targeted amplicons for other loci to create sequence diversity. Additionally, 10% PhiX sequencing control V3 (Illumina) was added to the pooled amplicon library prior to running the sample on a Miseq Sequencer System (Illumina) to generate paired 2×250 bp reads. Samples were demultiplexed using the index sequences, fastq files were generated, and NGS analysis was performed using CRIS.py.
The GSTP1 degradation assay was carried out by harvesting the HEK 293T reporter cell lines and resuspending the cells in media formulated for reduced background fluorescence (FluoroBrite; Thermo Fisher). The respective cell lines were seeded at a density of 8,000 cells/well into white-opaque 384-well optical grade assay tissue culture plates (Greiner 781080-20). The cells were incubated overnight at 37° C. to allow for attachment to the assay plate. Dilutions of the compounds were prepared in DMSO from 10 mM compound stocks. […] Plates were centrifuged at 320×g for 2 minutes at room temperature, and subsequently incubated at 37° C.
After 24 hour incubation with the compounds, the plates were allowed to cool to room temperature for 10 minutes. 30 μL of HiBiT lytic buffer+1:50 HiBiT substrate Solution were added to each well. Plates were centrifuged at 320×g for 2 minutes at room temperature and then incubated with shaking at room temperature for 10 minutes covered with foil. Plates were read on a CLARIOstar microplate reader (BMG LabTech), measuring at 450 nm (donor emission) and 610 nm or 630 nm (acceptor emission). The DC50 values were determined by regression to best fit four-parameter logistic curves using GraphPad Prism.
A general note: With HiBiT, luminescence reflects the tagged protein that the partner subunit can reach.
What is called DC50 is the midpoint of the concentration-degradation curve. A higher DC50 goes with a less potent degrader. Compound `O=C1CCC(N2Cc3cc(O[C@H]4CCCC[C@@H]4N4CC(C5CCCCC5)C4)ccc3C2=O)C(=O)N1` (stereo partly drawn) [Compound 1, 3-(5-(((1S,2S)-2-(3-cyclohexylazetidin-1-yl)cyclohexyl)oxy)-1-oxoisoindolin-2-yl)piperidine-2,6-dione] came in with a DC50 greater than 30 µM.

For the compound `O=C1CCC(N2Cc3cc(O[C@H]4CCCC[C@@H]4N4CC(C5CCC(F)(F)CC5)C4)ccc3C2=O)C(=O)N1` (stereo partly drawn) [Compound 2, 3-(5-(((1S,2S)-2-(3-(4,4-difluorocyclohexyl)azetidin-1-yl)cyclohexyl)oxy)-1-oxoisoindolin-2-yl)piperidine-2,6-dione], the DC50 is greater than 30 µM.

The compound `O=C1CCC(N2Cc3cc(O[C@H]4CCCC[C@@H]4N4CC(C5CC5)C4)ccc3C2=O)C(=O)N1` (stereo partly drawn) [Compound 3, 3-(5-(((1S,2S)-2-(3-cyclopropylazetidin-1-yl)cyclohexyl)oxy)-1-oxoisoindolin-2-yl)piperidine-2,6-dione] returned a DC50 greater than 30 µM.

For `O=C1CCC(N2Cc3cc(O[C@H]4CCCC[C@@H]4N4CC(C5CCC5)C4)ccc3C2=O)C(=O)N1` (stereo partly drawn) [Compound 5, 3-(5-(((1S,2S)-2-(3-cyclobutylazetidin-1-yl)cyclohexyl)oxy)-1-oxoisoindolin-2-yl)piperidine-2,6-dione], the DC50 was greater than 30 µM.

Compound `O=C1CCC(N2Cc3cc(O[C@H]4CCCC[C@@H]4N4CC(C5CCCC5)C4)ccc3C2=O)C(=O)N1` (stereo partly drawn) [Compound 6, 3-(5-(((1S,2S)-2-(3-cyclopentylazetidin-1-yl)cyclohexyl)oxy)-1-oxoisoindolin-2-yl)piperidine-2,6-dione] showed a DC50 greater than 30 µM.

On to `O=C1CCC(N2Cc3cc(O[C@H]4CCC[C@@H]4N4CC(C5CCC(F)(F)CC5)C4)ccc3C2=O)C(=O)N1` (stereo partly drawn) [Compound 13, 3-(5-(((1S,2S)-2-(3-(4,4-difluorocyclohexyl)azetidin-1-yl)cyclopentyl)oxy)-1-oxoisoindolin-2-yl)piperidine-2,6-dione], for which the DC50 is greater than 30 µM.

Turning to `CC(C)OC1CCC(C2CN([C@H]3CCCC[C@@H]3Oc3ccc4c(c3)CN(C3CCC(=O)NC3=O)C4=O)C2)CC1` (stereo partly drawn) [Compound 16, 3-(5-(((1S,2S)-2-(3-((cis)-4-isopropoxycyclohexyl)azetidin-1-yl)cyclohexyl)oxy)-1-oxoisoindolin-2-yl)piperidine-2,6-dione], the DC50 is greater than 30 µM.

`CC(C)OC1CCC(C2CN([C@H]3CCCC[C@@H]3Oc3ccc4c(c3)CN(C3CCC(=O)NC3=O)C4=O)C2)CC1` (stereo partly drawn) [Compound 17, 3-(5-(((1S,2S)-2-(3-((trans)-4-isopropoxycyclohexyl)azetidin-1-yl)cyclohexyl)oxy)-1-oxoisoindolin-2-yl)piperidine-2,6-dione] showed a DC50 greater than 30 µM.

`O=C1CCC(N2Cc3cc(O[C@H]4CCCC[C@@H]4N4CC(C5CC(F)(F)C5)C4)ccc3C2=O)C(=O)N1` (stereo partly drawn) [Compound 18, 3-(5-(((1S,2S)-2-(3-(3,3-difluorocyclobutyl)azetidin-1-yl)cyclohexyl)oxy)-1-oxoisoindolin-2-yl)piperidine-2,6-dione] showed a DC50 greater than 30 µM.

Consider `CCOC1CCC(C2CN([C@H]3CCCC[C@@H]3Oc3ccc4c(c3)CN(C3CCC(=O)NC3=O)C4=O)C2)CC1` (stereo partly drawn) [Compound 19, 3-(5-(((1S,2S)-2-(3-(4-ethoxycyclohexyl)azetidin-1-yl)cyclohexyl)oxy)-1-oxoisoindolin-2-yl)piperidine-2,6-dione], for which the DC50 was greater than 30 µM.

Consider `O=C1CCC(N2Cc3cc(O[C@H]4CCCC[C@@H]4N4CC(C5CCCC(F)(F)C5)C4)ccc3C2=O)C(=O)N1` (stereo partly drawn) [Compound 20, 3-(5-(((1S,2S)-2-(3-(3,3-difluorocyclohexyl)azetidin-1-yl)cyclohexyl)oxy)-1-oxoisoindolin-2-yl)piperidine-2,6-dione], for which the DC50 is greater than 30 µM.

Turning to `O=C1CCC(N2Cc3cc(O[C@H]4CCCC[C@@H]4N4CC(C5CCC(OC(F)F)CC5)C4)ccc3C2=O)C(=O)N1` (stereo partly drawn) [Compound 21, 3-(5-(((1S,2S)-2-(3-(4-(difluoromethoxy)cyclohexyl)azetidin-1-yl)cyclohexyl)oxy)-1-oxoisoindolin-2-yl)piperidine-2,6-dione], the DC50 was greater than 30 µM.

As for `O=C1CCC(N2Cc3cc(O[C@H]4CCC[C@@H]4N4CC(C5CC5)C4)ccc3C2=O)C(=O)N1` (stereo partly drawn) [Compound 22, 3-(5-(((1S,2S)-2-(3-cyclopropylazetidin-1-yl)cyclopentyl)oxy)-1-oxoisoindolin-2-yl)piperidine-2,6-dione], the DC50 is greater than 30 µM.

For `O=C1CCC(N2Cc3c(ccc(O[C@H]4CCCC[C@@H]4N4CC(C5CC5)C4)c3F)C2=O)C(=O)N1` (stereo partly drawn) [Compound 24, 3-(5-(((1S,2S)-2-(3-cyclopropylazetidin-1-yl)cyclohexyl)oxy)-4-fluoro-1-oxoisoindolin-2-yl)piperidine-2,6-dione], the DC50 is greater than 30 µM.

Compound `O=C1CCC(N2Cc3c(ccc(O[C@H]4CCCC[C@@H]4N4CC(C5CCC5)C4)c3F)C2=O)C(=O)N1` (stereo partly drawn) [Compound 25, 3-(5-(((1S,2S)-2-(3-cyclobutylazetidin-1-yl)cyclohexyl)oxy)-4-fluoro-1-oxoisoindolin-2-yl)piperidine-2,6-dione] returned a DC50 greater than 30 µM.

For the compound `O=C1CCC(N2Cc3cc(O[C@H]4CCCC[C@@H]4N4CC(C5CC5)C4)c(F)cc3C2=O)C(=O)N1` (stereo partly drawn) [Compound 26, 3-(5-(((1S,2S)-2-(3-cyclopropylazetidin-1-yl)cyclohexyl)oxy)-6-fluoro-1-oxoisoindolin-2-yl)piperidine-2,6-dione], the DC50 is greater than 30 µM.

The compound `O=C1CCC(N2Cc3cc(O[C@H]4CCCC[C@@H]4N4CC(C5CCC5)C4)c(F)cc3C2=O)C(=O)N1` (stereo partly drawn) [Compound 27, 3-(5-(((1S,2S)-2-(3-cyclobutylazetidin-1-yl)cyclohexyl)oxy)-6-fluoro-1-oxoisoindolin-2-yl)piperidine-2,6-dione] showed a DC50 greater than 30 µM.
